Source: PubChem BioAssay (NCI)
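Step 1: Grow cells in 96-well plates. Step 2: Expose to compound for 48 hours at 5 concentrations. Step 3: Interpolate endpoints linearly; if unreached, use highest concentration. TGI: total growth inhibition.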

Legend:
Test in all cases: growth of human tumour cells (NCI), 48 h
TK-10 renal = tested on: TK-10 renal
KM20L2 colon = tested on: KM20L2 colon
LXFL 529 NSCLC = tested on: LXFL 529 NSCLC
XF 498 CNS = tested on: XF 498 CNS
DMS 114 small cell lung = tested on: DMS 114 small cell lung
KM12 colon = tested on: KM12 colon
U251 CNS = tested on: U251 CNS
SN12C renal = tested on: SN12C renal
RPMI-8226 leukemia = tested on: RPMI-8226 leukemia
DLD-1 colon = tested on: DLD-1 colon
M19-MEL melanoma = tested on: M19-MEL melanoma
HOP-18 NSCLC = tested on: HOP-18 NSCLC
DMS 273 small cell lung = tested on: DMS 273 small cell lung
EKVX NSCLC = tested on: EKVX NSCLC
RXF-631 renal = tested on: RXF-631 renal
SNB-78 CNS = tested on: SNB-78 CNS

Compound	TGI (TK-10 renal) [µM]	TGI (KM20L2 colon) [µM]	TGI (LXFL 529 NSCLC) [µM]	TGI (XF 498 CNS) [µM]	TGI (DMS 114 small cell lung) [µM]	TGI (KM12 colon) [µM]	TGI (U251 CNS) [µM]	TGI (SN12C renal) [µM]	TGI (RPMI-8226 leukemia) [µM]	TGI (DLD-1 colon) [µM]	TGI (M19-MEL melanoma) [µM]	TGI (HOP-18 NSCLC) [µM]	TGI (DMS 273 small cell lung) [µM]	TGI (EKVX NSCLC) [µM]	TGI (RXF-631 renal) [µM]	TGI (SNB-78 CNS) [µM]
COc1ccccc1-n1c(N)c2c(C)c(-c3ccccc3)[nH]c2nc1=S	> 100	> 100	> 100	> 100	> 100	> 100	> 100	> 100	> 100	> 100	> 100	> 100	> 100			
Cc1nc(N)c(-c2ccccc2)s1	> 100	> 100	> 100	> 100	> 100	> 100	> 76.4	> 100	> 72.1	> 100	> 100	> 100	> 100	> 100	> 100	> 100
COc1cc(OC)c2c(=O)c3c([N+](=O)[O-])cccc3n(C)c2c1	> 100	> 100	> 100		> 100	> 100	> 100	> 100	> 100	> 100	> 100	> 100	> 100	> 100		> 100
CC/C(=N/O)c1ccc2[nH]c3c(C)cc([N+](=O)[O-])c(C)c3c2c1	> 100			> 100	> 100	> 100		> 100	> 100	> 100	> 100	> 100	60.8	> 100		> 100
CCCCNC(=NCc1ccccc1)NC#N	> 100	> 100	> 100	> 100		> 100	> 100	> 100	> 100	> 100	> 100		> 100	> 100		> 100
N#C/C(=C\c1cc(O)ccc1O)C(N)=O	> 100	> 100	> 100	> 100	70.9	> 100	> 100	> 100	65.6	> 100	> 100		> 100	> 100	> 100	> 100
Cc1ccc(NC(=O)CSc2nnc(Cc3ccccc3)o2)cc1	> 100	> 100	> 100		> 100	> 100	> 100	> 100	> 100	> 100	> 100	> 100	> 100	> 100		> 100
CCCCCCCCCCCCCCCCc1c(C(=O)OC)nc(NN)[nH]c1=O	> 50	> 50	> 50	> 50	> 50	> 50	> 50	> 50	> 50	> 50	> 50	> 50	> 50	> 50	> 50	> 50
CCOC(=O)C(/C(=N\NC(=O)OC)C(=O)Nc1cc(OC)ccc1OC)c1cnc2ccccc2n1 (stereo not given)	> 100		> 100	> 100	> 100		> 100	> 100	> 100	> 100	> 100	> 100		> 100		> 100
COc1ccc2c(c1)[n+](=O)c(C(=O)C/C(=N/NC(=O)C[N+](C)(C)C)C(=O)Nc1cccc(C)c1C)c(C)n2O		> 100	> 100		> 100	> 100	> 100	> 100	> 100	> 100	> 100	> 100	> 100	> 100	> 100	> 100
CCOC(=O)CCC(NC(=O)c1ccc(N=Cc2nc3ccccc3nc2-c2ccccc2)cc1)C(=O)OCC (stereo not given)	> 100	> 100	> 100	> 100	> 100	> 100	> 100	> 100	> 100	> 100		> 100	> 100	> 100	> 100	> 100
O=C(Cc1ccc([N+](=O)[O-])c([N+](=O)[O-])c1CC(=O)C(=O)Nc1cc(Cl)ccc1Cl)C(=O)Nc1cc(Cl)ccc1Cl	> 100	> 100	> 100		> 100	> 100	70.1	> 100	> 100	> 100	> 100	> 100	87.3	> 100		> 100
COc1cc2c(cc1O)CN1CCC23C=C[C@@H](O)CC13 (stereo not given in full)	> 100	> 100	> 100		> 100	> 100	> 100	> 100	> 100	> 100	> 100	> 100	> 100	> 100		> 100
Cc1nc(-n2nc(-c3ccccc3)cc2-c2ccccc2)sc1C(=O)/C=C/c1ccc(Cl)c(Cl)c1	> 100	70.3	32	30.8	> 100	20.8	23.8	44.3		48.2	> 100		> 100	> 100	> 100	73.6
CCN(CC)CC(=O)NC1c2ccccc2Oc2c(C)cccc21 (stereo not given)	> 100	> 100	> 100	> 100	> 100			> 100	> 100	> 100	> 100		> 100	> 100		> 100
C/C(=N/NC(=O)C[n+]1ccccc1)C(CN(CC(C)C)CC(C)C)C(=O)Nc1ccc(C)cc1C (stereo not given)	> 100	> 100			> 100			> 100	> 100	> 100	> 100			> 100	> 100	
C#CCNC(=O)NCCCCC(NC(C)=O)C(=O)NCc1ccccc1 (stereo not given)	> 100	> 100	> 100	> 100	> 100	> 100	> 100	> 100	> 100	> 100	> 100	> 100		> 100	> 100	> 100
C[C@@H]1O[C@]2(O)[C@@H]3CCCN3S(=O)(=O)CCN2C1=O	> 100	> 100	> 100	> 100		> 100	> 100	> 100	> 100	> 100	> 100	> 100		> 100	> 100	> 100
O=C(N/N=C(/c1nc2ccc([N+](=O)[O-])cc2[nH]c1=O)C(O)c1ccc([N+](=O)[O-])cc1)c1ccncc1 (stereo not given)	> 100		> 100	> 100	> 100	> 100	> 100	> 100	> 100	> 100	> 100	> 100		> 100		> 100
COc1cc(C2C(C(=O)Nc3ccc([N+](=O)[O-])cc3)=C(C)NC(C)=C2C(=O)Nc2ccc([N+](=O)[O-])cc2)ccc1O	68.7	34.7	64	69.1	> 74.5	39	33.8	36.4	59.6	> 68.6	43.3	> 74.2	53.3	> 100	> 100	> 100
CCOc1ccc(/C=C(\Cl)c2ccc(OC)cc2)cc1		> 100	> 100	> 100	> 100		> 100	> 100	> 100	> 100	> 100	> 100	> 100	> 100		> 100
CC1(C)OCN(c2ccc(S(N)(=O)=O)cc2)Cn2c1nc1ccccc12	> 100	> 100	> 100	> 100	> 100	> 100	> 100	> 100	> 100	> 100	> 100	> 100	> 100	> 100		> 100
CC(C)N(C(=O)C12C3C4C1C1C2C3C41I)C(C)C (stereo not given)	> 100		> 100	> 100	> 100	> 100		> 100			> 100		> 100	> 100	> 100	> 100
Oc1cc(CN2CCOCCOCCOCCOCC2)c(O)cc1CN1CCOCCOCCOCCOCC1	> 96.2	> 100	44.2	42.5		> 100	> 56.8		63.8	48.2	19.3			> 100		> 100
